From ChEMBL document CHEMBL5620417, “N-aryltetrahydroisoquinoline derivatives as HA-CD44 interaction inhibitors: Design, synthesis, computational studies, and antitumor effect” (Eur J Med Chem, 2023)
Active and inactive are the calls of the source. The calls are words filed in the database; no cut-off is given here.

How the values were obtained:
[1] = test system: MDA-MB-231; experiment: Antiproliferative activity against human MDA-MB-231 cells assessed as reduction in cell viability incubated for 5 days by PrestoBlue reagent based glo-max fluorescence assay; type: functional; conditions: MDA-MB-231, 120 h
[2] = test system: A549; experiment: Antiproliferative activity against human A549 cells assessed as reduction in cell viability incubated for 5 days by PrestoBlue reagent based glo-max fluorescence assay; type: functional; conditions: A549, 120 h
[3] = test system: A549; experiment: Antiproliferative activity against human A549 cells assessed as reduction in cell viability at >=100 uM incubated for 5 days by PrestoBlue reagent based glo-max fluorescence assay; type: functional; conditions: time 5.0 day
[4] = test system: MDA-MB-231; experiment: Antiproliferative activity against human MDA-MB-231 cells assessed as reduction in cell viability at >=100 uM incubated for 5 days by PrestoBlue reagent based glo-max fluorescence assay; type: functional; conditions: time 5.0 day
[5] = test system: MDA-MB-231; experiment: Antiproliferative activity against human MDA-MB-231 cells assessed as reduction in cell viability at <=70 uM incubated for 5 days by PrestoBlue reagent based glo-max fluorescence assay; type: functional; conditions: time 5.0 day
[6] = test system: MDA-MB-231; experiment: Antiproliferative activity against human MDA-MB-231 cells assessed as reduction in cell viability incubated for 5 days pre-incubated with anti-CD44 antibody IM7 by PrestoBlue reagent based glo-max fluorescence assay relative to control; type: functional; conditions: time 5 day
[7] = target: CD44 antigen (Homo sapiens) (UniProt P16070); experiment: Displacement of HA-FITC from CD44 in human MDA-MB-231 cells assessed as decrease in fluorescent intensity at 120 ug/ml incubated for 45 mins by competitive binding assay based flow cytometric analysis; type: cell-based; conditions: dose 120.0 µg/ml
[8] = test system: MDA-MB-231; experiment: Antiproliferative activity against human MDA-MB-231 cells assessed as decrease in viable cells incubated for 5 days by PrestoBlue reagent based glo-max fluorescence assay; type: functional, cell-based; conditions: time 5.0 day
[9] = test system: MDA-MB-231; experiment: Antiproliferative activity against human MDA-MB-231 cells assessed as spheroid disaggregation at 100 uM incubated for 5 days by PrestoBlue reagent based microscopic analysis; type: functional, cell-based; conditions: time 5.0 day
[10] = test system: MDA-MB-231; experiment: Antiproliferative activity against human MDA-MB-231 cells assessed as change in spheroid integrity at 1 uM incubated for 5 days by PrestoBlue reagent based microscopic analysis; type: functional, cell-based; conditions: time 5.0 day
[11] = test system: MDA-MB-231; experiment: Antiproliferative activity against human MDA-MB-231 cells assessed as increase in dead cell in spheroid at 1 uM incubated for 5 days by PrestoBlue reagent based microscopic analysis; type: functional; conditions: time 5.0 day
[12] = test system: MDA-MB-231; experiment: Antiproliferative activity against human MDA-MB-231 cells assessed as fold change in cell viability incubated for 5 days by PrestoBlue reagent based glo-max fluorescence assay; type: functional; conditions: time 5 day

CD44 antigen (Homo sapiens), sequence (P16070 whole entry): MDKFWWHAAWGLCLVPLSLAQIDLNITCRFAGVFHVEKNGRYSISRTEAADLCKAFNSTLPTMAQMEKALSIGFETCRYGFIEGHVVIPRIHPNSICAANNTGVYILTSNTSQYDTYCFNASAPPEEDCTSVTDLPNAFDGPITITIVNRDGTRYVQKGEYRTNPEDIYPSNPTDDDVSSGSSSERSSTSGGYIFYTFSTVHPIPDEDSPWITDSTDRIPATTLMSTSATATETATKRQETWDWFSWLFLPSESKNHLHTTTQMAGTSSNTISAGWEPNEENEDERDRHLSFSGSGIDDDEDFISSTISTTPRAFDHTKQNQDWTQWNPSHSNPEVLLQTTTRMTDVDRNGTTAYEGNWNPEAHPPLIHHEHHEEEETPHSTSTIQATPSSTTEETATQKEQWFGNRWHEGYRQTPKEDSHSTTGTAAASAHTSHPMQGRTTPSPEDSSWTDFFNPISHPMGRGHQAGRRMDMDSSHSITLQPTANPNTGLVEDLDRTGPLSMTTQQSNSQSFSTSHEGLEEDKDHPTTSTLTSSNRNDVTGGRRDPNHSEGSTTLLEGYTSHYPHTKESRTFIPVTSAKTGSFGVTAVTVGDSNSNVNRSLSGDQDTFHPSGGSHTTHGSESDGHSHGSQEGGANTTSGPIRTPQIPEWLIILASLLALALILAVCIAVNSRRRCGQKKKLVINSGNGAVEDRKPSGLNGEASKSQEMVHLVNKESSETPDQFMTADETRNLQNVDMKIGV

Q: For CC(=O)CCN1CCc2ccccc2C1, which EC50 [1] is on record?
A: The EC50 was 8 µM.

Q: How did the EC50 [2] turn out when FC(F)(F)c1ccc(CNc2cccc3c2CN(Cc2ccc(C(F)(F)F)cc2)CC3)cc1 was run?
A: The EC50 was 37 µM.

Q: What about the EC50 [1] of the same compound?
A: The EC50 was 31.5 µM.

Q: With COc1cc2c(cc1OC)CN(S(=O)(=O)c1ccc([N+](=O)[O-])cc1)CC2 as the compound, how does the Activity [3] read?
A: The Activity was “inactive”.

Q: What about the Activity [4] of the same compound?
A: The Activity was “inactive”.

Q: With Brc1ccc(CN2CCc3ccccc3C2)cc1 as the compound, how does the EC50 [2] read?
A: The EC50 was 37.9 µM.

Q: And the EC50 [1]?
A: Its EC50 is 77.1 µM.

Q: What does the source list for COc1cc(CN2CCc3cccc(N)c3C2)cc(OC)c1OC?
A: Activity [5]: Active; EC50 [2]: 72.4 µM; EC50 [1]: 57.4 µM

Q: Which results are given for Nc1cccc2c1CCN(S(=O)(=O)c1ccc([N+](=O)[O-])cc1)C2?
A: Activity [3]: inactive; Activity [4]: inactive

Q: What does the source list for COc1cc(CN2CCc3c(N)cccc3C2)cc(OC)c1OC?
A: Activity [5]: Active; EC50 [2]: 3.48 µM; EC50 [1]: 2.31 µM; Activity [6]: 13%; Activity [7]: Active

Q: O=[N+]([O-])c1ccc(S(=O)(=O)N2CCc3ccccc3C2)cc1 was tested. Which Activity [3] did it give?
A: Its Activity is “inactive”.

Q: And the EC50 [1]?
A: The EC50 was 61.8 µM.

Q: Cc1ccc(S(=O)(=O)N2CCc3ccccc3C2)cc1 was tested. Which Activity [3] did it give?
A: Its Activity is “inactive”.

Q: And the Activity [4]?
A: Its Activity is “inactive”.

Q: With COc1cc(CN2CCc3c(O)cccc3C2)cc(OC)c1OC as the compound, how does the EC50 [1] read?
A: Its EC50 is 0.59 µM.

Q: And the Activity [6]?
A: The Activity was 21%.

Q: What about the Activity [8] of the same compound?
A: The Activity was “Dose-Dependent Effect”.

Q: And the Activity [9]?
A: The Activity was “Active”.

Q: And the Activity [10]?
A: Its Activity is “Active”.

Q: And the Activity [11]?
A: Its Activity is “Active”.

Q: And the “fold change (FC)” value [12]?
A: The value was 4.

Q: What about the Activity [7] of the same compound?
A: The Activity was “Active”.

Q: With Nc1cccc2c1CN(S(=O)(=O)c1ccc([N+](=O)[O-])cc1)CC2 as the compound, how does the Activity [3] read?
A: The Activity was “inactive”.

Q: What about the Activity [4] of the same compound?
A: Its Activity is “inactive”.

Q: With Nc1cccc2c1CN(Cc1ccc(C(F)(F)F)cc1)CC2 as the compound, how does the EC50 [2] read?
A: Its EC50 is 34.7 µM.

Q: What about the EC50 [1] of the same compound?
A: The EC50 was 52.1 µM.

Q: FC(F)(F)c1ccc(CN2CCc3ccccc3C2)cc1 was tested. Which EC50 [2] did it give?
A: Its EC50 is 34.7 µM.

Q: What about the EC50 [1] of the same compound?
A: Its EC50 is 52.1 µM.

Q: Which Activity [3] does the source give for Cc1ccc(S(=O)(=O)N2CCc3cccc(N)c3C2)cc1 here?
A: The Activity was “inactive”.

Q: And the Activity [4]?
A: The Activity was “inactive”.

Q: With COc1cc2c(cc1OC)CN(Cc1cc(OC)c(OC)c(OC)c1)CC2 as the compound, how does the Activity [5] read?
A: The Activity was “Active”.

Q: What about the EC50 [2] of the same compound?
A: Its EC50 is 77.7 µM.

Q: What about the EC50 [1] of the same compound?
A: The EC50 was 70.3 µM.

Q: Which Activity [3] does the source give for COc1cc2c(cc1OC)CN(S(=O)(=O)c1ccc(C)cc1)CC2 here?
A: The Activity was “inactive”.

Q: And the Activity [4]?
A: Its Activity is “inactive”.

Q: What does the source list for COc1cc(CN2CCc3ccccc3C2)cc(OC)c1OC?
A: Activity [5]: Active; EC50 [2]: 48.2 µM; EC50 [1]: 19.8 µM

Q: What does the source list for COc1cc(CN2CCc3c(Br)cccc3C2)cc(OC)c1OC?
A: EC50 [1]: 1.77 µM; Activity [6]: 24%; fold change (FC) [12]: 1.3; Activity [7]: Active

Q: What does the source list for COc1cc2c(cc1OC)CN(Cc1ccc(Br)cc1)CC2?
A: EC50 [2]: 37.9 µM; EC50 [1]: 77.1 µM

Q: For Nc1cccc2c1CCN(Cc1ccc(Br)cc1)C2, which EC50 [2] is on record?
A: Its EC50 is 37.9 µM.

Q: What about the EC50 [1] of the same compound?
A: The EC50 was 77.1 µM.

Q: Which EC50 [2] does the source give for COc1cc2c(cc1OC)CN(Cc1ccc(C(F)(F)F)cc1)CC2 here?
A: The EC50 was 34.7 µM.

Q: And the EC50 [1]?
A: The EC50 was 52.1 µM.

Q: Which Activity [3] does the source give for Cc1ccc(S(=O)(=O)N2CCc3c(N)cccc3C2)cc1 here?
A: The Activity was “inactive”.

Q: What about the Activity [4] of the same compound?
A: The Activity was “inactive”.

Q: For Nc1cccc2c1CN(Cc1ccc(Br)cc1)CC2, which EC50 [2] is on record?
A: Its EC50 is 37.9 µM.

Q: What about the EC50 [1] of the same compound?
A: The EC50 was 77.1 µM.

Q: How did the EC50 [2] turn out when Nc1cccc2c1CCN(Cc1ccc(C(F)(F)F)cc1)C2 was run?
A: The EC50 was 34.7 µM.

Q: And the EC50 [1]?
A: The EC50 was 52.1 µM.
